From patent US4356186A, “Acetic acid derivatives and composition containing the same” (priority 1980, dated 1982)
Like-named read-outs stand apart in the source and are kept apart here.

Tests used:
[1] = tested on: carrageenin-induced hind paw edema; assay: Anti-inflammatory activity (carrageenin-induced hind paw edema in rats); format: in vivo, Male Wistar rats; settings: for inhibition in vivo at 1 mg/kg / inhibition in vivo at 2 mg/kg / inhibition in vivo at 4 mg/kg / inhibition in vivo at 8 mg/kg / inhibition in vivo at 0.5 mg/kg / inhibition in vivo at 80 mg/kg / inhibition in vivo at 5 mg/kg / inhibition in vivo at 20 mg/kg / inhibition in vivo at 40 mg/kg / inhibition in vivo at 160 mg/kg / inhibition in vivo at 10 mg/kg: Rattus norvegicus, po; for inhibition in vivo at 1 mg/kg: 1 mg/kg p.o.; for inhibition in vivo at 4 mg/kg: 4 mg/kg p.o.; for inhibition in vivo at 8 mg/kg: 8 mg/kg p.o.; for inhibition in vivo at 0.5 mg/kg: 0.5 mg/kg p.o.; for anti-inflammatory activity compared with the known indomethacin / anti-inflammatory activity compared with the known aspirin: in words, from Table 1; for inhibition in vivo at 10 mg/kg: 10 mg/kg p.o.
Procedure: Anti-inflammatory activity (carrageenin-induced hind paw edema in rats)
The test was carried out in a similar manner as disclosed in Proc. Soc. Exptl.
Male Wistar rats, weighing 100-300 g, were used. A 1% aqueous carrageenin solution (0.1 ml) was administered subcutaneously into the hind foot pad of rats. Two and three hours after the carrageenin injection, the paw volume was measured and the swelling rate was calculated based on the paw volume before the carrageenin injection. The inhibitory rate was determined as compared with the average swelling rate of the control group to which only vehicle was administered. The test compounds were administered orally one hour before the carrageenin injection.

stomach ulcer = assay: Gastrointestinal ulcerogenicity; format: in vivo, Male Wistar rats; set-up: key to Average score of stomach ulcer: ulcer score 1 to 4, 4 = most severe ulcer; settings: after 6 hours; for Average score of stomach ulcer: score 1 to 4
Procedure: Gastrointestinal ulcerogenicity
The test was carried out in a similar manner as disclosed in Arzneim. Forsch., 19, 36 (1969).
Male Wistar rats, weighing 130-180 g, were used. After the rats were fasted for 24 hours, the test compound was orally administered one time. After 6 hours, the rats were killed and the stomach was removed. […] The degree of stomach ulcer was scored from 1 to 4, wherein 4 is the most severe ulcer. In Table 2, there are shown the average score of stomach ulcer in each dose and also the ratio of the number of rats having a score of stomach ulcer of 2 or more to total number of rats used.

[2] = 2 h, two hours, read-out: Inhibitory rate, two hours after the carrageenin injection
[3] = 2 h, 2 mg/kg p.o., two hours, read-out: Inhibitory rate, two hours after the carrageenin injection
[4] = 3 h, three hours, read-out: Inhibitory rate, three hours after the carrageenin injection
[5] = 3 h, 2 mg/kg p.o., three hours, read-out: Inhibitory rate, three hours after the carrageenin injection
[6] = 2 h, 80 mg/kg p.o., two hours, read-out: Inhibitory rate, two hours after the carrageenin injection
[7] = 3 h, 80 mg/kg p.o., three hours, read-out: Inhibitory rate, three hours after the carrageenin injection
[8] = 2 h, read-out: Inhibitory rate, two hours after the carrageenin injection
[9] = 3 h, read-out: Inhibitory rate, three hours after the carrageenin injection
[10] = 2 h, 40 mg/kg p.o., two hours, read-out: Inhibitory rate, two hours after the carrageenin injection
[11] = 3 h, 40 mg/kg p.o., three hours, read-out: Inhibitory rate, three hours after the carrageenin injection
[12] = 2 h, 5 mg/kg p.o., two hours, read-out: Inhibitory rate, two hours after the carrageenin injection
[13] = 3 h, 5 mg/kg p.o., three hours, read-out: Inhibitory rate, three hours after the carrageenin injection

## CC(C(N)=O)c1ccc2c(c1)SCC1CCCCC1C2=O (single isomer, unassigned) [R, 2-(6,6a,7,8,9,10,10a,11-Octahydro-11-oxodibenzo[b,e]thiepin-3-yl)propionamide-A]
[1]; [2]
  inhibition in vivo at 1 mg/kg: 29.3%
  inhibition in vivo at 4 mg/kg: 38.4%
  inhibition in vivo at 8 mg/kg: 43.6%
[1]; [3]
  inhibition in vivo at 2 mg/kg: 30.7%
[1]; [4]
  inhibition in vivo at 1 mg/kg: 24.7%
  inhibition in vivo at 4 mg/kg: 37.7%
  inhibition in vivo at 8 mg/kg: 36%
[1]; [5]
  inhibition in vivo at 2 mg/kg: 27.6%
Stomach ulcer; 8 mg/kg p.o.
  Number of rats having a score of stomach ulcer of 2 or more/total number of rats used: 0/3
  Average score of stomach ulcer: 0.00
Stomach ulcer; 16 mg/kg p.o.
  Number of rats having a score of stomach ulcer of 2 or more/total number of rats used: 4/6
  Average score of stomach ulcer: 1.67
Stomach ulcer; 32 mg/kg p.o.
  Number of rats having a score of stomach ulcer of 2 or more/total number of rats used: 3/3
  Average score of stomach ulcer: 2.33

## CC(C(=O)O)c1ccc2c(c1)OCC1CCCCC1C2=O (stereo not shown) [A, 2-(6,6a,7,8,9,10,10a,11-Octahydro-11-oxodibenz[b,e]oxepin-3-yl)propionicacid]
[1]; [2]
  inhibition in vivo at 0.5 mg/kg: 23.7%
  inhibition in vivo at 1 mg/kg: 34.3%
[1]; [3]
  inhibition in vivo at 2 mg/kg: 40.5%
[1]; [4]
  inhibition in vivo at 0.5 mg/kg: 17.4%
  inhibition in vivo at 1 mg/kg: 26.9%
[1]; [5]
  inhibition in vivo at 2 mg/kg: 32.6%
[1]
  anti-inflammatory activity compared with the known indomethacin: comparable or superior to that of the known indomethacin

## O=C(O)Cc1ccc2c(c1)OCC1CCCCC1C2=O (stereo not shown) [B, 6,6a,7,8,9,10,10a,11-Octahydro-11-oxodibenz[b,e]oxepin-3-acetic acid]
[1]; [2]
  inhibition in vivo at 1 mg/kg: 17.8%
[1]; [4]
  inhibition in vivo at 1 mg/kg: 7.8%
[1]
  anti-inflammatory activity compared with the known indomethacin: comparable or superior to that of the known indomethacin

## CC(C(=O)O)c1ccc2c(c1)C(=O)C1CCCCC1CO2 (stereo not shown) [C, 2-(6,6a,7,8,9,10,10a,11-Octahydro-11-oxodibenz[b,e]oxepin-2-yl)propionicacid]
[1]; [6]
  inhibition in vivo at 80 mg/kg: 27.9%
[1]; [7]
  inhibition in vivo at 80 mg/kg: 23.1%
[1]
  anti-inflammatory activity compared with the known aspirin: comparable or superior to that of the known aspirin

## COc1ccc2c(c1)c(CC(=O)O)c(C)n2C(=O)c1ccc(Cl)cc1 [Compound 1, Indomethacin, reference compound]
[1]; [8]
  inhibition in vivo at 2 mg/kg: 20.5%
  inhibition in vivo at 5 mg/kg: 42.4%
[1]; [9]
  inhibition in vivo at 2 mg/kg: 19.3%
  inhibition in vivo at 5 mg/kg: 36.3%
Stomach ulcer; 4 mg/kg p.o.
  Average score of stomach ulcer: 0.50
Stomach ulcer; 8 mg/kg p.o.
  Average score of stomach ulcer: 1.78
Stomach ulcer; 16 mg/kg p.o.
  Average score of stomach ulcer: 2.56

## CC(=O)Oc1ccccc1C(=O)O [Compound 2, Aspirin, reference compound]
[1]; [8]
  inhibition in vivo at 20 mg/kg: 14.1%
  inhibition in vivo at 40 mg/kg: 22.9%
  inhibition in vivo at 80 mg/kg: 30.8%
  inhibition in vivo at 160 mg/kg: 35.1%
[1]; [9]
  inhibition in vivo at 20 mg/kg: 9%
  inhibition in vivo at 40 mg/kg: 21.2%
  inhibition in vivo at 80 mg/kg: 25.9%
  inhibition in vivo at 160 mg/kg: 30.9%
Stomach ulcer; 20 mg/kg p.o.
  Number of rats having a score of stomach ulcer of 2 or more/total number of rats used: 0/6
  Average score of stomach ulcer: 0.83
Stomach ulcer; 40 mg/kg p.o.
  Number of rats having a score of stomach ulcer of 2 or more/total number of rats used: 3/6
  Average score of stomach ulcer: 1.33
Stomach ulcer; 60 mg/kg p.o.
  Number of rats having a score of stomach ulcer of 2 or more/total number of rats used: 5/6
  Average score of stomach ulcer: 2.33
Stomach ulcer; 80 mg/kg p.o.
  Number of rats having a score of stomach ulcer of 2 or more/total number of rats used: 5/6
  Average score of stomach ulcer: 3.33
Stomach ulcer; 160 mg/kg p.o.
  Number of rats having a score of stomach ulcer of 2 or more/total number of rats used: 6/6
  Average score of stomach ulcer: 4.00

## CC(C(=O)O)c1ccc2c(c1)C(=O)C1CCCCC1CS2 (stereo not shown) [D, 2-(6,6a,7,8,9,10,10a,11-Octahydro-11-oxodibenzo[b,e]thiepin-2-yl)propionicacid]
[1]; [10]
  inhibition in vivo at 40 mg/kg: 28.6%
[1]; [6]
  inhibition in vivo at 80 mg/kg: 34%
[1]; [11]
  inhibition in vivo at 40 mg/kg: 24.6%
[1]; [7]
  inhibition in vivo at 80 mg/kg: 27.1%
[1]
  anti-inflammatory activity compared with the known aspirin: comparable or superior to that of the known aspirin

## O=C(O)Cc1ccc2c(c1)SCC1CCCCC1C2=O (stereo not shown) [E, 6,6a,7,8,9,10,10a,11-Octahydro-11-oxodibenzo[b,e]thiepin-3-acetic acid]
[1]; [3]
  inhibition in vivo at 2 mg/kg: 26.3%
[1]; [5]
  inhibition in vivo at 2 mg/kg: 16.8%
[1]
  anti-inflammatory activity compared with the known indomethacin: comparable or superior to that of the known indomethacin

## CC(C(=O)O)c1ccc2c(c1)SCC1CCCCC1C2=O (stereo not shown) [G, 2-(6,6a,7,8,9,10,10a,11-Octahydro-11-oxodibenzo[b,e]thiepin-3-yl)propionicacid-B]
[1]; [2]
  inhibition in vivo at 10 mg/kg: 12%
[1]; 2 h, 20 mg/kg p.o., two hours, read-out: Inhibitory rate, two hours after the carrageenin injection
  inhibition in vivo at 20 mg/kg: 18.3%
[1]; [10]
  inhibition in vivo at 40 mg/kg: 33.2%
[1]; [6]
  inhibition in vivo at 80 mg/kg: 32.2%
[1]; [4]
  inhibition in vivo at 10 mg/kg: 7.1%
[1]; 3 h, 20 mg/kg p.o., three hours, read-out: Inhibitory rate, three hours after the carrageenin injection
  inhibition in vivo at 20 mg/kg: 11%
[1]; [11]
  inhibition in vivo at 40 mg/kg: 26.9%
[1]; [7]
  inhibition in vivo at 80 mg/kg: 30.2%
[1]
  anti-inflammatory activity compared with the known aspirin: comparable or superior to that of the known aspirin

## C=CCOC(=O)C(C)c1ccc2c(c1)SCC1CCCCC1C2=O (stereo not shown) [K, Allyl 2-(6,6a,7,8,9,10,10a,11-octahydro-11-oxodibenzo[b,e]thiepin-3-yl)propionate]
[1]; [3]
  inhibition in vivo at 2 mg/kg: 27%
[1]; [12]
  inhibition in vivo at 5 mg/kg: 34.3%
[1]; [5]
  inhibition in vivo at 2 mg/kg: 22.3%
[1]; [13]
  inhibition in vivo at 5 mg/kg: 33.5%

## CC(C(=O)OCC(=O)c1ccccc1)c1ccc2c(c1)SCC1CCCCC1C2=O (stereo not shown) [M, Phenacyl 2-(6,6a,7,8,9,10,10a,11-octahydro-11-oxodibenzo[b,e]thiepin-3-yl)propionate]
[1]; [12]
  inhibition in vivo at 5 mg/kg: 33.2%
[1]; [13]
  inhibition in vivo at 5 mg/kg: 26.6%

## CC(C(=O)OCCOCCO)c1ccc2c(c1)SCC1CCCCC1C2=O (stereo not shown) [N, 2-(2-Hydroxyethoxy)ethyl 2-(6,6a,7,8,9,10,10a,11-octahydro-11-oxodibenzo[b,e]thiepin-3-yl)propionate]
[1]; [3]
  inhibition in vivo at 2 mg/kg: 15.8%
[1]; [12]
  inhibition in vivo at 5 mg/kg: 43.9%
[1]; [5]
  inhibition in vivo at 2 mg/kg: 13.2%
[1]; [13]
  inhibition in vivo at 5 mg/kg: 28.1%

## CC(C(=O)OCCN1CCOCC1)c1ccc2c(c1)SCC1CCCCC1C2=O (stereo not shown) [Q, 2-Morpholinoethyl 2-(6,6a,7,8,9,10,10a,11-octahydro-11-oxodibenzo[b,e]thiepin-3-yl)propionate]
[1]; [3]
  inhibition in vivo at 2 mg/kg: 25.4%
[1]; [12]
  inhibition in vivo at 5 mg/kg: 28.9%
[1]; [5]
  inhibition in vivo at 2 mg/kg: 22.8%
[1]; [13]
  inhibition in vivo at 5 mg/kg: 22%

## CC(C(=O)NO)c1ccc2c(c1)SCC1CCCCC1C2=O (stereo not shown) [S, 2-(6,6a,7,8,9,10,10a,11-Octahydro-11-oxodibenzo[b,e]thiepin-3-yl)propionohydroxamic acid]
[1]; [3]
  inhibition in vivo at 2 mg/kg: 21.9%
[1]; [12]
  inhibition in vivo at 5 mg/kg: 31.5%
[1]; [5]
  inhibition in vivo at 2 mg/kg: 18.5%
[1]; [13]
  inhibition in vivo at 5 mg/kg: 29.9%

## CC(C(=O)NCC(=O)O)c1ccc2c(c1)SCC1CCCCC1C2=O (stereo not shown) [T, N-Carboxymethyl-2-(6,6a,7,8,9,10,10a,11-octahydro-11-oxodibenzo[b,e]thiepin-3-yl)propionamide]
[1]; [3]
  inhibition in vivo at 2 mg/kg: 19.9%
[1]; [12]
  inhibition in vivo at 5 mg/kg: 43.9%
[1]; [5]
  inhibition in vivo at 2 mg/kg: 15%
[1]; [13]
  inhibition in vivo at 5 mg/kg: 28.1%
